According to patent US11965041B2, “N-methylated cyclic peptides and their prodrugs” (TECHNISCHE UNIVERSITAET MUENCHEN, priority 2017, dated 2024):
Numbered stars: 1 amine (or outer) side, 2 acyl side, 3 side chain; on linkers, the order of the positions; unused ones are H or OH. Square brackets hold non-standard residues; d marks the D form. Peptide text beside a SMILES is read from it. X1 = CCCCCCOC(=O)N=C(NCCC[C@@H](N[*:1])C(=O)[*:2])NC(=O)OCCCCCC; NMeV = CN[C@H](C(=O)O)C(C)C; dNMeA = CN[C@H](C)C(=O)O

Columns and labels:
[1] = in vivo; cited from earlier work
physchem = conditions: pH 7.4, LogD, pH 7.4, reported value (mean or bound)
[2] = Caco-2 permeability study (Examples 1, 2 and 4, Table 3); format: in vitro ADME, human; conditions: Caco-2, unit inferred; read-out: Caco-2 A-to-B Papp (converted)
[3] = Metabolic stability in rat plasma; format: in vitro ADME; conditions: 37° C., up to 90 minutes
Experimental: The enzymatic reactions were performed as follows: 2 mM stock solutions of the tested compounds were diluted with serum or purified brush border membrane vesicles (BBMVs) solution to a final concentration of 0.5 mM. During incubation at 37° C. samples were taken for a period of 90 minutes. The enzymatic reaction was stopped by adding 1:1 v/v of ice cold acetonitrile and centrifuge (4000 g, 10 min) before analysis. Preparation of BBMVs: The BBMVs was prepared from combined duodenum, jejunum, and upper ileum (male Wistar rats) by a Ca^++ precipitation method. Purification of the BBMVs was assayed using GGT, LAP and alkaline phosphatase as membrane enzyme markers
Peptides 12 and 12p were subjected to rat plasma and followed their degradation. Rat plasma is known to be rich with esterases.

[4] = Pooled Human Liver Microsome assay; format: in vitro ADME
Text: Peptide 12 P was subjected to additional in vitro assay to evaluate the involvement of liver metabolism using the Pooled Human Liver Microsome assay. Liver microsomes are subcellular particles derived from the endoplasmic reticulum of hepatic cells. These microsomes are a rich source of drug metabolizing enzymes, including cytochrome P-450. Microsome pools from various sources are useful in the study of xenobiotic metabolism and drug interactions. […] The presence of ketokonazole inhibits the metabolism by the liver enzymes in some degree. However, Incubating peptide 12P with self-assembling pro-nano lipospheres (PNL), led to much better inhibition of cytochromes P-450.

CYP3A4 = experiment: Enzymatic inhibition study in isolated rat CYP3A4 microsomes; format: in vitro ADME; conditions: rat, pooled rat CYP3A4 microsomes, pH 7.4; with ketoconazole; 60 min; read-out: concentration remaining after incubation, with ketoconazole
rat CYP3A4 microsomes = experiment: as above; format: in vitro ADME; conditions: 60 min
[5] = Pharmacokinetic study in rats after oral administration; format: in vivo, Wistar rats; conditions: rat
Experimental: In Vivo Studies. Male Wistar rats (Harlan, Israel), 275-300 g in weight, were used for all surgical procedures. Animals were anesthetized for the period of surgery by intraperitoneal injection of 1 mL/kg of ketamine/xylazine solution (9:1), placed on a heated surface, and maintained at 37° C. (Harvard Apparatus Inc., Holliston, MA). An indwelling cannula was placed in the right jugular vein of each animal for systemic blood sampling, by a method described before. The cannula was tunneled beneath the skin and exteriorized at the dorsal part of the neck. After completion of the surgical procedure, the animals were transferred to cages to recover overnight (12-18 h). During this recovery period, food but not water was deprived. Throughout the experiment, free access to food was available 4 h post oral administration. Animals were randomly assigned to the different experimental groups. […] Dispersed 12P SNEDDS (5 mg/kg) was administered to the animals by oral gavage (n=3). Systemic blood samples (0.35 mL) were taken at 5 min predose, 20, 40, 60, 90, 180, 240, and 360 min postdose. To prevent dehydration, equal volumes of physiological solution were administered to the rats following each withdrawal of blood sample. Plasma was separated by centrifugation (5322 g, 10 min) and stored at −20° C. pending analysis. In the 12P pharmacokinetic study, the parent peptide, 12, was analytically determined.
Pharmacokinetic Analysis. The area under the plasma concentration-time curve (AUC) was calculated by using the trapezoidal rule with extrapolation to infinity by dividing the last measured concentration by the elimination rate constant (kel). The elimination rate constant values were determined by a linear regression analysis using the last points on the logarithmic plot of the plasma concentration versus the time curve. Pharmacokinetic parameters, such Tmax, Cmax, clearance (CL), volume of distribution (V), and bioavailability, were calculated using noncompartmental analysis.
Analytical Methods. Plasma or BBMV samples were spiked with metoprolol (1.5 μg/mL) as an internal standard. ACN was added to each sample (2:1) and vortex-mixed for 1 min. The samples were then centrifuged (14 635 g, 10 min), and the supernatant was transferred to fresh glass tubes and evaporated to dryness (Vacuum Evaporation System, Labconco, Kansas City, MO, USA). Then, the glass tubes were reconstituted in 80 μL of mobile phase and centrifuged a second time (14 635 g, 10 min). The amount of the compounds was determined using an HPLC-MS Waters 2695 Separation Module, equipped with a Micromass ZQ detector. The resulting solution was injected (10 μL) into the HPLC system. The system was conditioned as follows: for parent drug peptides (including 12), a Kinetex 2.6 μm HILIC 100 Å, 100 mm×2.1 mm column (Phenomenex, Torrance, CA, USA), an isocratic mobile phase, and an acetonitrile:water:ammonium acetate buffer 50 mM (70:10:20, v/v/v) was used; and for the prodrug peptides (including 12P), a Luna (Phenomenex) 3 μm C8 100 Å, 100 mm×2.0 mm column and an isocratic mobile phase of ACN:water supplemented with 0.1% formic acid (70:30, v/v) and a flow rate of 0.2 mL/min at 25° C. was used. The limit of quantification for all of the peptides and prodrugs was 25 ng/mL.
The pharmacokinetic in-vivo study allows a further evaluation of the prodrug concept in the whole animal. The PK studies were performed in conscious Wistar male rats. An indwelling cannula was implanted in the jugular vein 24 hours before the PK experiment to allow full recovery of the animals from the surgical procedure. Animals (n=4) received either an IV bolus dose or oral dose of the investigated compound. Blood samples (with heparin, 15 U/ml) were collected at several time points for up to 6 hours post administration and was assayed by HPLC-MS method. Non-compartmental pharmacokinetic analysis was performed using WinNonlin software.

[6] = oral 5 mg/kg, peptide 12 measured in plasma, 12P given as dispersed 12P SNEDDS

permeability in the PAMPA-GIT model system | Papp (AB), replicate 1 (Caco-2 cells) | logD at 1 h (physchem) | Papp A→B [2] [×10⁻⁶ cm/s] | metabolic stability in rat plasma, in words [3] | remaining at 1 h, 1 µM (CYP3A4) [%] | concentration remaining after incubation, alone (rat CYP3A4 microsomes; 12P alone) [%] | concentration remaining after incubation, with SNEDDS (rat CYP3A4 microsomes; dispersed 12P SNEDDS) [%] | relative bioavailability vs peptide 12 ([5]; after oral administration) | AUC [5, 6] [µg·min/mL] | Cmax [5, 6] [ng/mL] | F [5, 6] [%] | Kel [5, 6] [min⁻¹] | Tmax, Median (range) [5, 6] | SMILES | half live in man [1] [h] | metabolism by Pooled Human Liver Microsomes, in words [4]
> -5 | 0.1 10^−6 cm/s | – | – | – | – | – | – | – | – | – | – | – | – | CCCCCCOC(=O)N=C(NCCC[C@H]1NC(=O)[C@H](C(C)C)N(C)C(=O)[C@@H](C)N(C)C(=O)[C@@H](C)NC(=O)[C@@H](CC(=O)OC)NC(=O)CNC1=O)NC(=O)OCCCCCC [#29P*] (cyclo(G[dD](OMe)[dA][dNMeA][NMeV][X1])) | – | –
low permeability | – | < -1 | – | – | – | – | – | – | – | – | – | – | – | CC(C)[C@H]1C(=O)N[C@@H](CCCN=C(N)N)C(=O)NCC(=O)N[C@@H](CC(=O)O)C(=O)N[C@H](Cc2ccccc2)C(=O)N1C [Cilengitide, cyclo(RGDf-(NMe)V)] | 4 | –
– | – | – | 0.785 | degraded | 67 ± 3.61 | 14.0±4.06 | 102.2±19.7 | about 70 fold | 216.9 ± 75.6 | 1993 ± 967 | 43.8 ± 14.9 | 0.009 ± 0.0001 | 20 (20-60) min | CCCCCCOC(=O)N=C(NCCC[C@@H]1NC(=O)[C@@H](C)N(C)C(=O)[C@H](C)N(C)C(=O)[C@H](C)NC(=O)[C@H](CC(=O)OC)NC(=O)CNC1=O)NC(=O)OCCCCCC [Peptide 12P, c(*aR(Hoc)2GD(OMe)A*A)] | – | substrate for P-gp efflux system and cytochromes P-450
